Source: patent publication US20240067660A1, “MACROCYCLIC SPIROCYCLE DERIVATIVES AS MCL-1 INHIBITORS” (Janssen Pharmaceutica NV, priority 2019, published 2024)
Where two headings read alike, the source gives them in different places.

Key:
MOLP8 cells = assay: MOLP8 CellEvent Caspase-3/7 Green IncuCyte live-cell apoptosis assay; assay type: cell-based, human
Protocol: (§1) MCL-1 is a regulator of apoptosis and is highly over-expressed in tumor cells that escape cell death. The assay evaluates the cellular potency of small-molecule compounds targeting regulators of the apoptosis pathway, primarily MCL-1, Bfl-1, Bcl-2, and other proteins of the Bcl-2 family. Protein-protein inhibitors disrupting the interaction of anti-apoptotic regulators with BH3-domain proteins initiate apoptosis.
Activation of the apoptotic pathway was measured using the CellEvent™ Caspase-3/7 Green ReadyProbes™ Reagent (Thermo Fisher C10423, C10723). This assay produces a green fluorescent stain in cells that enter the apoptosis pathway. CellEvent® Caspase-3/7 Green reagent is a four amino acid peptide (DEVD) conjugated to a nucleic acid-binding dye that is non-fluorescent when not bound to DNA. The CellEvent® Caspase-3/7 Green reagent is intrinsically non-fluorescent, as the DEVD peptide inhibits binding of the dye to DNA. Upon activation of caspase-3/7 in apoptotic cells, the DEVD peptide is cleaved and the free dye can bind DNA, generating a bright green fluorescence. The activation of Caspase-3 and Caspase-7 is downstream of inhibition of MCL-1 or other apoptosis inhibiting proteins in cell lines that are dependent on them.
The live-cell readout on the IncuCyte permits tracking over time of the Caspase activation. […] The IncuCyte readout also allows one to normalize for cell number, as the suspension cells are hard to distribute evenly.
Signals were measured every 2 h for a duration of 22 h. The ratio of the Caspase mask to the Confluence mask, per image, as raw data, was calculated and the kinetic trace for every well was exported to Genedata Screener for analysis.
In Genedata Screener values for 6 h, 12 h, and 22 h from the kinetic traces were extracted. The values were normalized against negative controls (untreated cells). A standard dose-response analysis was performed on the normalized data.
The following data was reported at each of the following three aforementioned time points: (a) The dose-response curve, (b) The qAC50 and qAC50 Mode, and (c) Max Activity.
Cells were maintained in culture medium containing 10% Heat Inactivated (HI) FBS, 2 mM L-Glutamine and 50 μg/mL Gentamycin phenol red free RPMI-1640. Cells were split at 0.4 million/mL twice a week.
On Day 1, plates containing individual wells with test compounds at 10 mM concentration, 150 nL per well. The final concentrations range from […] compound (and no compound control) and compounds were thawed at room temperature for 1 hour. 25 μl of prewarmed medium was added into each well by multidrop (column 1, 3-22, 24), followed by addition of DMSO control (0.6% DMSO) in column 2. The plate was sealed using Breathe-Easy® sealing membrane and shaken for 30 min at room temperature to dissolve the test compound(s) in medium. The plate was then kept in the incubator for 1 hour at 37° C., 5% CO2.
MOLP8 cells in medium at […] (20000/50 μl final in assay) were prepared with CellEvent™ Caspase-3/7 Green Detection Reagent at 4 μM (2 μM final in assay). Once prepared, the cells were added to the test compound plate in an amount of 20000 and the plate was immediately placed in the IncuCyte and imaging started using following settings: 10× objective, 2 s exposure time in green channel, interval of 2 h, acquisition stopped after 22 h.
For analysis in IncuCyte, a Basic Analysis protocol was defined to calculate the “confluence” and “caspase” areas from the “Phase” and “green” images, respectively, as follows: (a) Confluence: Segmentation Adjustment 1, Hole Fill 0, Adjust Size −2, No filters (b) Caspase: Top-Hat segmentation, Radius 10, Threshold 0.3 GCU, Edge Split On with sensitivity 0, Hole Fill 0, Adjust Size 1, and filter on a minimum Area of 20 μm^2. The analyzer is trained on a sufficient number of positive and negative control wells, as well as compound treated wells, verifying that the “confluence” layer detects both live and dead (condensed) cells. […]

[1] = target: Myeloid Cell Leukemia 1(Mcl-1) (Homo sapiens (Human), UniProt Q07820); assay: Terbium labeled Mcl-1 HTRF binding assay with Cy5-labeled BIM BH3 peptide; settings: first table; [L]=8 nM, Kd=10 nM; before recalibration of the equipment
Protocol: Terbium labeled Myeloid Cell Leukemia 1(Mcl-1) homogeneous time-resolved fluorescence (HTRF) binding assay utilizing the BIM BH3 peptide (H2N-(C/Cy5Mal) WIAQELRRIGDEFN-OH) as the binding partner for Mcl-1.
This assay evaluated inhibition of the BH3 domain: Mcl-1 interaction by measuring the displacement of Cy5-labeled BIM BH3 peptide (H2N—(C/Cy5Mal) WIAQELRRIGDEFN-OH) in the HTRF assay format.
The following assay and stock buffers were prepared for use in the assay: (a) Stock buffer: 10 mM Tris-HCl, pH=7.5+150 mM NaCl, filtered, sterilized, and stored at 4° C.; and (b) 1× assay buffer, where the following ingredients were added fresh to stock buffer: 2 mM dithiothreitol (DTT), 0.0025% Tween-20, 0.1 mg/mL bovine serum albumin (BSA). The 1×Tb-Mcl-1+Cy5 Bim peptide solution was prepared by diluting the protein stock solution using the 1× assay buffer (b) to 25 pM Tb-Mcl-1 and 8 nM Cy5 Bim peptide.
Using the Acoustic ECHO, 100 nL of 100× test compound(s) were dispensed into individual wells of a white 384-well Perkin Elmer Proxiplate, for a final compound concentration of lx and final DMSO concentration of 1%. Inhibitor control and neutral control (NC, 100 nL of 100% DMSO) were stamped into columns 23 and 24 of assay plate. Into each well of the plate was then dispensed 10 μL of the 1×Tb-Mcl-1+Cy5 Bim peptide solution. The plate was centrifuged with a cover plate at 1000 rpm for 1 minute, then incubated for 60 minutes at room temperature with plates covered.
The TR-FRET signal was read on an BMG PHERAStar FSX MicroPlate Reader at room temperature using the HTRF optic module (HTRF: excitation: 337 nm, light source: laser, emission A: 665 nm, emission B: 620 nm, integration start: 60 μs, integration time: […]).
The BMG PHERAStar FSX MicroPlate Reader was used to measure fluorescence intensity at two emission wavelengths—665 nm and 620 nm—and report relative fluorescence units (RFU) for both emissions, as well as a ratio of the emissions (665 nm/620 nm)*10,000. The RFU values were normalized to percent inhibition as follows:
% inhibition=((NC−IC)−(compound−IC))/(NC−IC))*100
where IC (inhibitor control, low signal)=mean signal of 1×Tb-MCl-1+Cy5 Bim peptide+inhibitor control or 100% inhibition of Mcl-1; NC (neutral control, high signal)=mean signal 1×Tb-MCl-1+Cy5 Bim peptide with DMSO only or 0% inhibition An 11-point dose response curve was generated to determine IC50 values (using GenData) based on the following equation:
Y=Bottom+(Top−Bottom)/(1+10^((IogIC50−X)*HillSlope))
where Y=% inhibition in the presence of X inhibitor concentration; Top=100% inhibition derived from the IC (mean signal of Mcl-1+inhibitor control); Bottom=0% inhibition derived from the NC (mean signal of Mcl-1+DMSO); Hillslope=Hill coefficient; and IC50=concentration of compound with 50% inhibition in relation to top/neutral control (NC).
In this assay [L]=8 nM and Kd=10 nM

[2] = test system: MOLP-8 human multiple myeloma cell line; assay: Caspase-Glo 3/7 assay in MOLP-8 cells; assay type: cell-based; settings: Homo sapiens, MOLP-8, 2 h, Caspase-Glo 3/7, 2 hours incubation; averaged over all runs on all batches; read-out: MOLP8 AC50
Source text: as §1
The Caspase-Glo® 3/7 Assay is a luminescent assay that measures caspase-3 and -7 activities in purified enzyme preparations or cultures of adherent or suspension cells. The assay provides a proluminescent caspase-3/7 substrate, which contains the tetrapeptide sequence DEVD. This substrate is cleaved to release aminoluciferin, a substrate of luciferase used in the production of light. Addition of the single Caspase-Glo® 3/7 Reagent in an “add-mix-measure” format results in cell lysis, followed by caspase cleavage of the substrate and generation of a “glow-type” luminescent signal.
This assay uses the MOLP-8 human multiple myeloma cell line, which is sensitive to MCL-1 inhibition.
Cell cultures were maintained between 0.2 and 2.0×10^6 cells/mL. The cells were harvested by collection in 50 mL conical tubes. The cells were then pelleted at 500 g for 5 mins before removing supernatant and resuspension in fresh pre-warmed culture medium. The cells were counted and diluted as needed.
The assay reagent was prepared by transferring the buffer solution to the substrate vial and mixing. The solution may be stored for up to 1 week at 4° C. with negligible loss of signal.
Compounds were delivered in assay-ready plates (Proxiplate) and stored at −20° C. Assays always include 1 reference compound plate containing reference compounds. The plates were spotted with 40 nL of compounds (0.5% DMSO final in cells; serial dilution; 30 μM highest conc. 1/3 dilution, 10 doses, duplicates). The compounds were used at room temperature and 4 μL of pre-warmed media was added to all wells except column 2 and 23. The negative control was prepared by adding 1% DMSO in media. The positive control was prepared by adding the appropriate positive control compound in final concentration of 60 μM in media. The plate was prepared by adding 4 μL negative control to column 23, 4 μL positive control to column 2 and 4 μL cell suspension to all wells in the plate. The plate with cells was then incubated at 37° C. for 2 hours. The assay signal reagent is the Caspase-Glo solution described above, and 8 μL was added to all wells. The plates were then sealed and measured after 30 minutes.
The activity of a test compound was calculated as percent change in apoptosis induction as follows: […]

[3] = 6 h, read-out: MOLP8 Caspase 3/7 AC50 at 6 h
[4] = 12 h, read-out: MOLP8 Caspase 3/7 AC50 at 12 h
[5] = 22 h, read-out: MOLP8 Caspase 3/7 AC50 at 22 h
[6] = Homo sapiens, MOLP-8, 6 h, 6 h, read-out: MOLP8 Caspase 3/7 AC50 at 6 h
[7] = Homo sapiens, MOLP-8, 12 h, 12 h, read-out: MOLP8 Caspase 3/7 AC50 at 12 h
[8] = Homo sapiens, MOLP-8, 22 h, 22 h, read-out: MOLP8 Caspase 3/7 AC50 at 22 h

Myeloid Cell Leukemia 1(Mcl-1), sequence (Q07820 whole entry): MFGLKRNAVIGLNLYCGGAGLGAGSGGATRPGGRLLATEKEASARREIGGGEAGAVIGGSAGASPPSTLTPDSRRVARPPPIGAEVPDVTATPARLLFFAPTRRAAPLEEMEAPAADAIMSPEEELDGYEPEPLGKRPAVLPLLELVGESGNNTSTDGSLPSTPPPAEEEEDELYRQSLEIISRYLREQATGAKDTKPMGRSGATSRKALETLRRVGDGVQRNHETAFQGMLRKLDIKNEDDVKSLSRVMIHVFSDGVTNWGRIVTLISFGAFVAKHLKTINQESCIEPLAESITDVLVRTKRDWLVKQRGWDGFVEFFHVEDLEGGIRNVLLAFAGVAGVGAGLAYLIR

Row | SMILES | AC50 (MOLP8 cells; [3]) | AC50 (MOLP8 cells; [4]) | AC50 (MOLP8 cells; [5]) | Ki [1] | AC50 (MOLP8 cells; [6]) | AC50 (MOLP8 cells; [7]) | AC50 (MOLP8 cells; [8]) | AC50 [2]
1 | C[C@@H]1[C@@H](C)C/C=C/CN2CC[C@H]2CN2CC3(CCOc4cc(Cl)ccc43)COc3ccc(cc32)C(=O)NS1(=O)=O (single isomer, unassigned) [Compound 6] | > 30000 nM | > 30000 nM | > 30000 nM |  |  |  |  | 
2 | COCCOCCOC[C@H]1/C(F)=C/C[C@H](C)[C@@H](C)S(=O)(=O)NC(=O)c2ccc3c(c2)N(C[C@@H]2CCN21)C[C@@]1(CCCc2cc(Cl)ccc21)CO3 [Compound 14] |  |  |  | 0.34 nM | 300 nM | 350 nM | 370 nM | 
3 | C[C@@H]1[C@@H](C)C/C=C(\F)[C@H](COCCN2CCOCC2)N2CC[C@H]2CN2C[C@@]3(CCCc4cc(Cl)ccc43)COc3ccc(cc32)C(=O)NS1(=O)=O [Compound 30] |  |  |  |  | 630 nM | 560 nM | 620 nM | 
4 | C[C@@H]1[C@@H](C)C/C=C(\F)[C@H](CN2CCN3CCN(C)C[C@@H]3C2)N2CC[C@H]2CN2C[C@@]3(CCCc4cc(Cl)ccc43)COc3ccc(cc32)C(=O)NS1(=O)=O [Compound 32] |  |  |  |  | 1100 nM | 960 nM | 960 nM | 
5 | C[C@@H]1[C@@H](C)C/C=C(/F)CN2CC[C@H]2CN2C[C@@]3(CCCc4cc(Cl)ccc43)COc3ccc(cc32)C(=O)NS1(=O)=O [Compound 1] |  |  |  |  | 7760 nM | ~10500 nM | 7940 nM | 
6 | C[C@@H]1[C@@H](C)C/C=C(\F)CN2CC[C@H]2CN2C[C@@]3(CCCc4cc(Cl)ccc43)COc3ccc(cc32)C(=O)NS1(=O)=O [Compound 2] |  |  |  |  | ~970 nM | ~1050 nM | 1200 nM | 692 nM
7 | COC[C@H]1/C(F)=C/C[C@H](C)[C@@H](C)S(=O)(=O)NC(=O)c2ccc3c(c2)N(C[C@@H]2CCCN21)C[C@@]1(CCCc2cc(Cl)ccc21)CO3 [Compound 20] |  |  |  | 0.91 nM | 810 nM | 700 nM | 610 nM | 
8 | C[C@@H]1[C@@H](C)C/C=C/CN2CC[C@H]2CN2C[C@@]3(CCCc4cc(Cl)ccc43)COc3ccc(cc32)C(=O)NS1(=O)=O [Compound 3] |  |  |  | 3.14 nM | 2400 nM | 2690 nM | 3090 nM | 
9 | C[C@@H]1[C@@H](C)C/C=C(\F)[C@H](CN2CCOCC2)N2CC[C@H]2CN2C[C@@]3(CCCc4cc(Cl)ccc43)COc3ccc(cc32)C(=O)NS1(=O)=O [Compound 33] |  |  |  |  | 330 nM | 340 nM | 560 nM | 
10 | COCCOCC1(COCCOC)/C(F)=C/C[C@H](C)[C@@H](C)S(=O)(=O)NC(=O)c2ccc3c(c2)N(C[C@@H]2CCN21)C[C@@]1(CCCc2cc(Cl)ccc21)CO3 [Compound 41] |  |  |  |  |  |  |  | 152 nM
11 | C[C@@H]1[C@@H](C)C/C=C/CN2CC[C@H]2CN2CC3(CCOc4cc(Cl)ccc43)COc3ccc(cc32)C(=O)NS1(=O)=O (single isomer, unassigned) [Compound 5] | 6310 nM | 6600 nM | 5750 nM |  |  |  |  | 3740 nM
